Data from ChEMBL document CHEMBL1154382, “Preliminary SAR analysis of novel antiproliferative N(6),5'-bis-ureidoadenosine derivatives” (2009).

Key:
Format in all cases: functional
Conditions in all cases: values are per cent of control
NCI-H522 = assay: Antiproliferative activity against human NCI-H522 cells at 10 uM assessed as cell growth inhibition relative to control
UACC-62 = assay: Antiproliferative activity against human UACC62 cells at 10 uM assessed as cell growth inhibition relative to control
OVCAR-4 = assay: Antiproliferative activity against human OVCAR4 cells at 10 uM assessed as cell growth inhibition relative to control
M14 = assay: Antiproliferative activity against human M14 cells at 10 uM assessed as cell growth inhibition relative to control
OVCAR-8 = assay: Antiproliferative activity against human OVCAR8 cells at 10 uM assessed as cell growth inhibition relative to control
SF-539 = assay: Antiproliferative activity against human SF539 cells at 10 uM assessed as cell growth inhibition relative to control
[1] = Antiproliferative activity against human Hs 578T cells at 10 uM assessed as cell growth inhibition relative to control
DU-145 = assay: Antiproliferative activity against human DU145 cells at 10 uM assessed as cell growth inhibition relative to control
BT-549 = assay: Antiproliferative activity against human BT549 cells at 10 uM assessed as cell growth inhibition relative to control
T47D = assay: Antiproliferative activity against human T47D cells at 10 uM assessed as cell growth inhibition relative to control
SN12C = assay: Antiproliferative activity against human SN12C cells at 10 uM assessed as cell growth inhibition relative to control
SF-295 = assay: Antiproliferative activity against human SF295 cells at 10 uM assessed as cell growth inhibition relative to control
KM12 = assay: Antiproliferative activity against human KM12 cells at 10 uM assessed as cell growth inhibition relative to control
NCI-H226 = assay: Antiproliferative activity against human NCI-H226 cells at 10 uM assessed as cell growth inhibition relative to control
COLO 205 = assay: Antiproliferative activity against human COLO205 cells at 10 uM assessed as cell growth inhibition relative to control
HCC 2998 = assay: Antiproliferative activity against human HCC2998 cells at 10 uM assessed as cell growth inhibition relative to control
HOP-62 = assay: Antiproliferative activity against human HOP62 cells at 10 uM assessed as cell growth inhibition relative to control
HCT-116 = assay: Antiproliferative activity against human HCT116 cells at 10 uM assessed as cell growth inhibition relative to control
MDA-MB-468 = assay: Antiproliferative activity against human MDA-MB-468 cells at 10 uM assessed as cell growth inhibition relative to control
UO-31 = assay: Antiproliferative activity against human UO31 cells at 10 uM assessed as cell growth inhibition relative to control
SW-620 = assay: Antiproliferative activity against human SW620 cells at 10 uM assessed as cell growth inhibition relative to control
OVCAR-5 = assay: Antiproliferative activity against human OVCAR5 cells at 10 uM assessed as cell growth inhibition relative to control
SK-MEL-28 = assay: Antiproliferative activity against human SK-MEL-28 cells at 10 uM assessed as cell growth inhibition relative to control
HL-60(TB) = assay: Antiproliferative activity against human HL-60(TB) cells at 10 uM assessed as cell growth inhibition relative to control
MCF7 = assay: Antiproliferative activity against human MCF7 cells at 10 uM assessed as cell growth inhibition relative to control
HOP-92 = assay: Antiproliferative activity against human HOP92 cells at 10 uM assessed as cell growth inhibition relative to control
LOX IMVI = assay: Antiproliferative activity against human LOXIMVI cells at 10 uM assessed as cell growth inhibition relative to control
SNB-75 = assay: Antiproliferative activity against human SNB75 cells at 10 uM assessed as cell growth inhibition relative to control
786-0 = assay: Antiproliferative activity against human 786-0 cells at 10 uM assessed as cell growth inhibition relative to control
IGROV-1 = assay: Antiproliferative activity against human IGROV1 cells at 10 uM assessed as cell growth inhibition relative to control
A498 = assay: Antiproliferative activity against human A498 cells at 10 uM assessed as cell growth inhibition relative to control
ACHN = assay: Antiproliferative activity against human ACHN cells at 10 uM assessed as cell growth inhibition relative to control
HCT-15 = assay: Antiproliferative activity against human HCT15 cells at 10 uM assessed as cell growth inhibition relative to control
NCI-H322M = assay: Antiproliferative activity against human NCI-H322M cells at 10 uM assessed as cell growth inhibition relative to control
MDA-MB-231 = assay: Antiproliferative activity against human MDA-MB-231 cells at 10 uM assessed as cell growth inhibition relative to control
PC-3 = assay: Antiproliferative activity against human PC3 cells at 10 uM assessed as cell growth inhibition relative to control
RXF 393 = assay: Antiproliferative activity against human RXF393 cells at 10 uM assessed as cell growth inhibition relative to control
MOLT-4 = assay: Antiproliferative activity against human MOLT4 cells at 10 uM assessed as cell growth inhibition relative to control
CAKI-1 = assay: Antiproliferative activity against human Caki1 cells at 10 uM assessed as cell growth inhibition relative to control
OVCAR-3 = assay: Antiproliferative activity against human OVCAR-3 cells at 10 uM assessed as cell growth inhibition relative to control
K562 = assay: Antiproliferative activity against human K562 cells at 10 uM assessed as cell growth inhibition relative to control
CCRF-CEM = assay: Antiproliferative activity against human CCRF-CEM cells at 10 uM assessed as cell growth inhibition relative to control
UACC-257 = assay: Antiproliferative activity against human UACC257 cells at 10 uM assessed as cell growth inhibition relative to control
SK-MEL-5 = assay: Antiproliferative activity against human SK-MEL-5 cells at 10 uM assessed as cell growth inhibition relative to control
HT-29 = assay: Antiproliferative activity against human HT-29 cells at 10 uM assessed as cell growth inhibition relative to control
Malme-3M = assay: Antiproliferative activity against human MALME-3M cells at 10 uM assessed as cell growth inhibition relative to control
SK-OV-3 = assay: Antiproliferative activity against human SKOV3 cells at 10 uM assessed as cell growth inhibition relative to control
NCI-H460 = assay: Antiproliferative activity against human NCI-H460 cells at 10 uM assessed as cell growth inhibition relative to control
[2] = Antiproliferative activity against human […] cells at 10 uM assessed as cell growth inhibition relative to control
SF-268 = assay: Antiproliferative activity against human SF268 cells at 10 uM assessed as cell growth inhibition relative to control
SNB-19 = assay: Antiproliferative activity against human SNB19 cells at 10 uM assessed as cell growth inhibition relative to control
EKVX = assay: Antiproliferative activity against human EKVX cells at 10 uM assessed as cell growth inhibition relative to control
SK-MEL-2 = assay: Antiproliferative activity against human SK-MEL-2 cells at 10 uM assessed as cell growth inhibition relative to control
NCI-H23 = assay: Antiproliferative activity against human NCI-H23 cells at 10 uM assessed as cell growth inhibition relative to control
U-251 = assay: Antiproliferative activity against human U251 cells at 10 uM assessed as cell growth inhibition relative to control
A549 = assay: Antiproliferative activity against human A549 cells at 10 uM assessed as cell growth inhibition relative to control
TK-10 = assay: Antiproliferative activity against human TK10 cells at 10 uM assessed as cell growth inhibition relative to control

## CCOC(=O)C[C@H]1[C@@H](O[Si](C)(C)C(C)(C)C)[C@H](n2cnc3c(N)ncnc32)O[C@@H]1COC(=O)NC
NCI-H522
  growth, % of control at 10 µM: 75%
UACC-62
  growth, % of control at 10 µM: 77%
OVCAR-4
  growth, % of control at 10 µM: 78%
M14
  growth, % of control at 10 µM: 100%
OVCAR-8
  growth, % of control at 10 µM: 98%
SF-539
  growth, % of control at 10 µM: 89%
[1]
  growth, % of control at 10 µM: 93%
DU-145
  growth, % of control at 10 µM: 100%
BT-549
  growth, % of control at 10 µM: 74%
T47D
  growth, % of control at 10 µM: 84%
SN12C
  growth, % of control at 10 µM: 96%
SF-295
  growth, % of control at 10 µM: 92%
KM12
  growth, % of control at 10 µM: 102%
NCI-H226
  growth, % of control at 10 µM: 79%
COLO 205
  growth, % of control at 10 µM: 104%
HCC 2998
  growth, % of control at 10 µM: 55%
HOP-62
  growth, % of control at 10 µM: 74%
HCT-116
  growth, % of control at 10 µM: 81%
MDA-MB-468
  growth, % of control at 10 µM: 77%
UO-31
  growth, % of control at 10 µM: 95%
SW-620
  growth, % of control at 10 µM: 104%
OVCAR-5
  growth, % of control at 10 µM: 115%
SK-MEL-28
  growth, % of control at 10 µM: 106%
HL-60(TB)
  growth, % of control at 10 µM: 80%
MCF7
  growth, % of control at 10 µM: 98%
HOP-92
  growth, % of control at 10 µM: 95%
LOX IMVI
  growth, % of control at 10 µM: 88%
SNB-75
  growth, % of control at 10 µM: 83%
786-0
  growth, % of control at 10 µM: 87%
IGROV-1
  growth, % of control at 10 µM: 118%
A498
  growth, % of control at 10 µM: 98%
ACHN
  growth, % of control at 10 µM: 89%
HCT-15
  growth, % of control at 10 µM: 87%
NCI-H322M
  growth, % of control at 10 µM: 99%
MDA-MB-231
  growth, % of control at 10 µM: 85%
PC-3
  growth, % of control at 10 µM: 84%
RXF 393
  growth, % of control at 10 µM: 78%
MOLT-4
  growth, % of control at 10 µM: 55%
CAKI-1
  growth, % of control at 10 µM: 79%
OVCAR-3
  growth, % of control at 10 µM: 98%
K562
  growth, % of control at 10 µM: 86%
CCRF-CEM
  growth, % of control at 10 µM: 98%
UACC-257
  growth, % of control at 10 µM: 94%
SK-MEL-5
  growth, % of control at 10 µM: 68%
HT-29
  growth, % of control at 10 µM: 100%
Malme-3M
  growth, % of control at 10 µM: 96%
SK-OV-3
  growth, % of control at 10 µM: 94%
NCI-H460
  growth, % of control at 10 µM: 106%
[2]
  growth, % of control at 10 µM: 79%
SF-268
  growth, % of control at 10 µM: 97%
SNB-19
  growth, % of control at 10 µM: 92%
EKVX
  growth, % of control at 10 µM: 83%
SK-MEL-2
  growth, % of control at 10 µM: 111%
NCI-H23
  growth, % of control at 10 µM: 105%
U-251
  growth, % of control at 10 µM: 86%
A549
  growth, % of control at 10 µM: 92%
TK-10
  growth, % of control at 10 µM: 110%
